What all share (assay type): cell-based
In test [1] the test system is yeast Saccharomyces cerevisiae. Description: Simultaneous saccharification and fermentation (SSF) of sugarcane bagass slurry. The settings on record: for Fermentability: 7.5 and 10 mM, 13 and 45 hours (FIG. 9). How it is done:
The pretreatment of sugarcane bagass for SSF experiments was performed in the Swedish cellulosic ethanol pilot plant (operated by SEKAB E-Technology, Örnskoldsvik, Sweden). Sugarcane bagass was treated in a continuous mode in a 30-liter reactor at a temperature of 198-199° C. and with a residence time of 13-14 min. The feed rate was 24 kg (dry weight) per h and the bagass was impregnated with sulfur dioxide (0.5 kg/h). The pH after pretreatment was 2.7. The dry matter content was 19%. The pretreated material was cooled and stored at 4° C. until further use.
SSF experiments were also performed with sugarcane bagass slurries. The sugarcane bagass slurries were prepared as described in Example 1. Reducing agents, dithionite and sulphite, respectively, were added 10 min prior to inoculum in concentrations of studied 7.5 and 10 mM. The ethanol concentration was measured after 13 and 45 hours according to the protocol described in Example 1.

Test [2] concerns baker's yeast (Saccharomyces cerevisiae). The method, then:
The pH of the sugarcane bagass and spruce hydrolysates were adjusted to 5.5 with a 5 M solution of sodium hydroxide. The conditioning of each hydrolysate was performed in eight 100-mL glass vessels equipped with magnetic stirrer bars. 26 mL hydrolysate was added to all vessels, and the vessels were placed on a magnetic stirrer plate (IKA-Werke, Staufen, Germany). Sodium dithionite (chemical grade; >87%, Merck, Darmstadt, Germany) was added to hydrolysates in the concentrations 5 and 10 mM. Additions of sodium sulphite to 5 and 10 mM were also performed. The additions were made at room temperature (23° C.) and the samples were kept for 10 min with stirring. The experiments were performed in duplicates.
The efficiency of the additions of the reducing agents was compared with alkali detoxification.
Ethanol measurements were performed by using an enzymatic kit (Ethanol UV-method, Boehringer Mannheim GmbH, Mannheim, Germany). Fermentation experiments were performed to evaluate the effectiveness of the additions and treatments. For comparison, untreated hydrolysates were included in the fermentation experiments as well as reference fermentations of sugar-based medium with an amount of fermentable sugars (i.e. glucose and mannose) corresponding to that in the hydrolysate samples. The fermentations were carried out using baker's yeast (Saccharomyces cerevisiae) (Jastbolaget AB, Rotebro, Sweden). The yeast inoculum was prepared in 750-mL cotton-plugged shake flasks with 300 mL YEPD medium (2% yeast extract, 1% peptone, 2% D-glucose). The flasks were inoculated and incubated with agitation at 30° C. for approximately 12 h. The cells were harvested in the late exponential growth phase by centrifugation (Hermla Z206A, Hermle Labortechnik GmbH, Wehingen, Germany) at 1,500 g for 5 min. The cells were resuspended in an appropriate amount of sterile water to achieve an inoculum consisting of 2.0 g/L (cell dry weight) in all fermentation vessels. The fermentation was carried out in 14 25-mL glass flasks equipped with magnets for stirring and sealed with rubber plugs pierced with cannulas for letting out carbon dioxide. The hydrolysate samples (23.75 mL), or alternatively the sugar solution for reference fermentations, were added to the fermentation flasks along with 0.5 mL of a nutrient solution (150 g/L yeast extract, 75 g/L (NH4)2HPO4, 3.75 g/L MgSO4.7H2O, 238.2 g/L NaH2PO4.H2O), and 0.75 mL of yeast inoculum. The flasks were incubated at 30° C. in a water bath with magnetic stirring (IKA-Werke). Samples for measurement of sugars and ethanol were withdrawn during the fermentation. The glucose levels during the fermentation were estimated by using a glucometer (Glucometer Elite XL, Bayer AG, Leverkusen, Germany).

Test [3] relates to yeast Saccharomyces cerevisiae. Description: Simultaneous saccharification and fermentation (SSF) of spruce slurry. The settings on record: for Final ethanol concentration: after 70 hours. How it is done:
Addition of sodium dithionite and sodium sulphite was tested in an SSF process. Spruce was pretreated as described in Example 1 above. The spruce slurry was adjusted to pH 5.4 with a 5 M solution of sodium hydroxide. Ten 250-mL shake flasks equipped with magnetic stirrer bars were filled with 100 g of spruce slurry. Sodium dithionite or sodium sulphite was added to the slurries to final concentrations of 7.5 and 10 mM. The additions were performed at room temperature (23° C.) for 10 min with stirring. Duplicate experiments were made. Cellulase and cellobiase preparations were prepared and added to the slurry using the enzyme activity loadings as described in Example 1 above. Further, the yeast inoculum was prepared according to Example 1 above. Inoculums were added to give a start concentration of 2.0 g/L (cell dry weight) in every flask. No source of extra nutrients was added. For comparison, two flasks with spruce slurry to which no reducing agents had been added were included in the experiment. The flasks were incubated at 35° C. for 69 h in a water bath with magnetic stirring. The flasks were sealed with Parafilm (Pechiney Plastic Packaging Company, Chicago, Ill., USA) to prevent evaporation of ethanol. Samples were withdrawn for analysis of ethanol according to Examplel above.
A spruce slurry was prepared according to Examples 1 and 2 above. Different flasks were filled with 100 g each of the spruce slurry and were subjected to a SSF process according to Example 2 above, but with different amounts of dithionite and sulphite added. The produced ethanol was monitored during the fermentation. […]

The mark [4] stands for this setting: spruce hydrolysate, 10 mM (FIGS. 1 and 2).
The mark [5] stands for this setting: spruce hydrolysate, 14 h fermentation, 10 mM.
Where [6] appears, read: 6 h fermentation, NH4OH detoxification, pH 9, 55° C., 3 h.
Where [7] appears, read: spruce hydrolysate, 14 h fermentation, NH4OH detoxification, pH 9, 55° C., 3 h.

From patent publication US8795997B2 (priority 2009, dated 2014) come the findings set out here.

Like-named read-outs stand apart in the source and are kept apart here.

As to `O=S([O-])S(=O)[O-].[Na+].[Na+]` [Dithionite, Sodium dithionite], the Fermentability result in test [1] is given as “improved fermentability”. In addition, the “Ethanol production, dithionite compared with sulphite” value in test [1] (10 and 7.5 mM (FIG. 9)) is “better than any of the sulphite concentrations”. Also, the “Ethanol concentration compared with other additions” value in test [2] (10 mM (FIG. 4)) is given as “higher ethanol concentration compared to addition of 5 mM dithionite or 10 mM sulphite”. The Balanced ethanol yield in test [2] (6 h fermentation, 10 mM) is listed as 0.28 g EtOH/Σglucose & mannose prior to detoxification; in test [2] (setting [5]) it was 0.34 g EtOH/Σglucose & mannose prior to detoxification. Moreover, the Productivity came to 3.9 g EtOH×L^−1×h^−1 in test [2] (6 h fermentation, 10 mM) and 2.5 g EtOH×L^−1×h^−1 in test [2] (setting [5]). In addition, the “Yield (ethanol)” value is 0.34 g EtOH/g consumed glucose & mannose in test [2] (6 h fermentation, 10 mM) and 0.37 g EtOH/g consumed glucose & mannose in test [2] (setting [5]). The “Glucose consumption rates and amounts of ethanol produced” value in test [2] (spruce hydrolysate, 5 mM (FIGS. 1 and 2)) is “substantial improvement compared to untreated hydrolysate”; in test [2] (setting [4]) it was “comparable to those of the reference fermentation”. Moreover, the Final ethanol concentration result in test [3] (2.5 mM) was “about 10 g/L”; in test [3] (5 mM) it was 35 to 40 g/L; in test [3] (7.5 mM) it was “highest ethanol production”; in test [3] (10 mM) it was “highest ethanol production”; in test [3] (15 mM), “highest ethanol production”; in test [3] (20 mM), 35 to 40 g/L. Besides, the Final ethanol concentration entry in test [3] (30 mM) is “about 30 g/L”. Also, in test [3] (7.5 mM, compared with 10 mM dithionite (FIG. 5)), the “Ethanol levels and ethanol formation” value is on record as “reached the same high levels of ethanol, but ethanol formation was slightly slower”. In addition, in test [3] (10 mM (FIG. 5)), the “Time after which ethanol formation leveled off” value is “about 45 h”. The “Improvement of ethanol production, dithionite compared with sulphite” value in test [3] (10 mM (FIG. 8)) is given as “better improvement than the addition of sulphite”. Moreover, the “Ethanol production compared to untreated” value in test [3] (7.5 and 10 mM (FIG. 5)) is given as “higher ethanol production compared to the untreated hydrolysate”.

For the molecule `N` [NH4OH, ammonium hydroxide, reference compound], in test [2] (setting [6]), the Balanced ethanol yield is 0.25 g EtOH/Σglucose & mannose prior to detoxification, the Productivity is recorded as 3.5 g EtOH×L^−1×h^−1 and the “Yield (ethanol)” value is listed as 0.34 g EtOH/g consumed glucose & mannose. Also, in test [2] (setting [7]), the Balanced ethanol yield was 0.37 g EtOH/Σglucose & mannose prior to detoxification, the Productivity is reported as 2.8 g EtOH×L^−1×h^−1 and the “Yield (ethanol)” value was 0.43 g EtOH/g consumed glucose & mannose.

Take `O=S([O-])[O-].[Na+].[Na+]` [Sulphite, sodium sulphite]: the Fermentability entry in test [1] is “improved fermentability”. Besides, the Balanced ethanol yield is listed as 0.21 g EtOH/Σglucose & mannose prior to detoxification in test [2] (6 h fermentation, 10 mM) and 0.16 g EtOH/Σglucose & mannose prior to detoxification in test [2] (setting [5]). Also, the Productivity in test [2] (6 h fermentation, 10 mM) is listed as 2.9 g EtOH×L^−1×h^−1; in test [2] (setting [5]), 1.2 g EtOH×L^−1×h^−1. Besides, the “Yield (ethanol)” value in test [2] (6 h fermentation, 10 mM) is reported as 0.32 g EtOH/g consumed glucose & mannose; in test [2] (setting [5]), 0.29 g EtOH/g consumed glucose & mannose. Further, the “Glucose consumption rates and amounts of ethanol produced” value in test [2] (setting [4]) is given as “substantial improvement compared to untreated hydrolysate”. In addition, the Final ethanol concentration entry in test [3] (2.5 mM) is “did not result in as high final ethanol concentrations”; in test [3] (5 mM), “did not result in as high final ethanol concentrations”; in test [3] (7.5 mM), 35 to 40 g/L; in test [3] (10 mM), 35 to 40 g/L; in test [3] (15 mM), “about 40 g/L”; in test [3] (20 mM), “about 40 g/L”. Also, in test [3] (30 mM), the Final ethanol concentration entry is given as “about 40 g/L”. Further, the “Ethanol production compared to untreated” value in test [3] (7.5 and 10 mM (FIG. 5)) is “higher ethanol production compared to the untreated hydrolysate”. In addition, in test [3] (7.5 and 10 mM (FIG. 5)), the “Ethanol production compared with dithionite samples” value is recorded as “lower ethanol production compared to the samples to which dithionite was added”. For the same molecule, the “Time after which ethanol formation leveled off” value in test [3] (7.5 and 10 mM (FIG. 5)) came out at 20 h.
